Data on five compounds can be found in PMC10986609, “Identification of fungal natural products with potent inhibition in Toxoplasma gondii” (Microbiology Spectrum, 2024).

The test system of data set [1] is human foreskin fibroblasts (HFFs). Nature of the data set: HFF cytotoxicity dose response (cell counting kit-8). Particulars: for IC50: Homo sapiens, Fibroblast, 48 h, read-out: HFF IC50 (mean ± SEM). The protocol:
(§1) Samples were further diluted by adding an equal volume of media containing 700 parasites. DMSO and […] of KAE609 were used as negative and positive controls, respectively. Assays were performed with a total of three technical replicates and two biological replicates. After incubation for 48 hours, 50 µL of media was removed, and plates were subjected to freezing and thawing. Following this, 10 µL of passive lysis buffer was added and plates were incubated for 15 min at room temperature. Finally, 30 µL of luciferase reagent was added, and the luminescence was measured immediately using a PHERAstar FSX. In parallel, cytotoxicity dose response was performed in the same fashion without the addition of parasites. Cell counting kit-8 reagent (GlpBio; Cat # GK10001) was added at a 1:10 dilution and incubated at 37°C, 5% CO2 for 1 hour. The absorbance was then measured at 450 nm using a PHERAstar FSX. The data management system CDD vault was used for curve fitting and IC50 determination.

A further data set is described as follows: in vitro. The conditions noted are these: human. The protocol: as §1
In data set [2] the test system is Toxoplasma gondii tachyzoites (RH88). Nature of the data set: microbe, parasite or virus in culture. Particulars: Toxoplasma gondii, 48 h, read-out: TgRH88 IC50 (mean ± SEM). The protocol:
(§2) For the initial fixed concentration screening and IC50 determination in T. gondii, we utilized a luciferase expressing RH88 strain to quantify the number of live, actively replicating parasites. To construct this strain, the Fluc and DHFR selection markers had been integrated into the UPRT locus through CRISPR/Cas9, rendering the strain pyrimethamine-resistant ([6]). Screening was performed using a pure compound library provided by the University of Oklahoma Natural Products Discovery Group, containing 683 compounds derived primarily from fungal secondary metabolites. For purposes of testing, HFFs were grown in 96-well microtiter plates in preparation. The media we used to grow cells was referred to a D10 media that was composed of Dulbecco's Modified Eagle Medium (Thermo Fisher; Cat # 11995073), 10% Fetal Bovine Serum (Sigma-Aldrich; Cat # 12306C), 1 × non-essential amino acids (100 ×; Thermo Fisher; Cat # 11140050), HEPES buffer (1M; Fisher Scientific; Cat # SH3023701) at 0.4M, and 10 mg/mL of gentamicin (Fisher Scientific; Cat # 15710072). Compounds were then diluted to 10 µM in 100 µL of fresh D10 media. Each plate utilized artemisinin and DMSO vehicle controls. To each well, 2,500 parasites per 100 µL of D10 media were added. Three technical replicates were then performed. After 48 hours, 160 µL of the D10 media was removed, and plates were subjected to freezing then thawing. Following this, 10 µL of the passive lysis buffer (Promega; Cat# E1910) was added and incubated at room temperature for 15 min. Finally, 100 µL of luciferase assay reagent (Promega; Cat# E1501) was added to each well, and luminescence was measured using a PHERAstar FSX plate reader (BMG Labtech, Germany).
as §1, with “For IC50 and cytotoxicity determination, we used 384 plates with confluent HFF cells. Compounds were serially diluted 3-fold with a starting concentration of 20 µM. Samples” for “Samples”

For data set [3], the system named is Plasmodium falciparum (Dd2). Particulars: mean of duplicate or triplicate experiments; read-out: PfDd2 IC50; cited from earlier work.
In the next data set the test system is T. gondii. Set-up: method as in earlier work. Particulars: 100 µM; cited from earlier work.
The test system of data set [4] is Toxoplasma gondii tachyzoites (RH88). Nature of the data set: T. gondii fixed concentration screen at 5 µM (luciferase). It is filed as cell-based. The conditions noted are these: 48 hours. The protocol:
as §2, with “To each well, 2,500 parasites per 100 µL of D10 media were added. Three technical replicates were then performed. After 48 hours, 160 µL of the D10 media was removed, and plates were subjected to freezing then thawing. Following this, 10 µL of the passive lysis buffer (Promega; Cat# E1910) was added and incubated at room temperature for 15 min.” left out

By IC50 is commonly meant the concentration needed to halve the response being measured. As a reminder, the inhibition is the share of the control response that was lost under treatment.

For the compound `CO[C@@H]1[C@H](OC(=O)/C=C/C=C/C=C/C=C/C(=O)O)CC[C@]2(CO2)[C@H]1[C@@]1(C)O[C@@H]1CC=C(C)C` [compound 150046, Fumagillin], the IC50 in data set [1] was over 20000 nM; in “in vitro”, over 60000 nM; in data set [2], 58.8 ± 7.3 nM; in data set [3], 1310 nM. For the same compound, the “toxicity to HFFs” value in data set [1] (highest concentration tested (60 µM)) is “lack of toxicity”.
For `COC(=O)[C@@]12Oc3cc4c(c(O)c3C(=O)C1=C(O)CC[C@@H]2O)[C@@H]1C=C[C@@]2(C4)C(=O)c3cc(C)cc(O)c3C(O)=C2C1=O` [compound 130144, Xanthoquinodin A1], the IC50 is 12900 nM in data set [1], 12900 ± 1900 nM in “in vitro”, 112 ± 74 nM in data set [2] and 250 nM in data set [3].
Turning to `COC(=O)[C@]12Oc3cc4c(c(O)c3C(=O)C1=C(O)CC[C@@H]2O)[C@@H]1C=C[C@@]2(C4)C(=O)c3cc(C)cc(O)c3C(O)=C2C1=O` [compound 130147, Xanthoquinodin A2], the IC50 in data set [1] is 12300 nM; in the data set “in vitro”, 12300 ± 300 nM; in data set [2] it was 56.4 ± 12.8 nM; in data set [3], 680 nM.
As for `CC(C)[C@H]1CC[C@@]2(O)COC(=O)[C@H]2[C@@H]1/C=C(\CO)C(=O)O` [hydroheptelidic acid, reference compound], in the data set on T. gondii, the “inhibition of T. gondii” value is given as “no activity”.
Turning to `C[C@@H]1CC[C@H]2[C@@H](C)C(=O)O[C@@H]3O[C@@]4(C)CC[C@@H]1[C@]32OO4` [Artemisinin, reference compound], the inhibition at 5 µM in data set [4] is 94%. The 50% inhibitory concentration (IC50) in data set [1] turned out to be 10500 nM; in data set [2], 702 ± 24.7 nM.
